Where a name gives a salt, the structure may show the parent alone.

In one experiment the target is T1, rat NaPi-2b (Rattus norvegicus, UniProt Q9JJ09).
T1 construct: expressed in transfected cells; host or cells: Xenopus oocytes injected with cRNA
T1 sequence (Q9JJ09 1-695): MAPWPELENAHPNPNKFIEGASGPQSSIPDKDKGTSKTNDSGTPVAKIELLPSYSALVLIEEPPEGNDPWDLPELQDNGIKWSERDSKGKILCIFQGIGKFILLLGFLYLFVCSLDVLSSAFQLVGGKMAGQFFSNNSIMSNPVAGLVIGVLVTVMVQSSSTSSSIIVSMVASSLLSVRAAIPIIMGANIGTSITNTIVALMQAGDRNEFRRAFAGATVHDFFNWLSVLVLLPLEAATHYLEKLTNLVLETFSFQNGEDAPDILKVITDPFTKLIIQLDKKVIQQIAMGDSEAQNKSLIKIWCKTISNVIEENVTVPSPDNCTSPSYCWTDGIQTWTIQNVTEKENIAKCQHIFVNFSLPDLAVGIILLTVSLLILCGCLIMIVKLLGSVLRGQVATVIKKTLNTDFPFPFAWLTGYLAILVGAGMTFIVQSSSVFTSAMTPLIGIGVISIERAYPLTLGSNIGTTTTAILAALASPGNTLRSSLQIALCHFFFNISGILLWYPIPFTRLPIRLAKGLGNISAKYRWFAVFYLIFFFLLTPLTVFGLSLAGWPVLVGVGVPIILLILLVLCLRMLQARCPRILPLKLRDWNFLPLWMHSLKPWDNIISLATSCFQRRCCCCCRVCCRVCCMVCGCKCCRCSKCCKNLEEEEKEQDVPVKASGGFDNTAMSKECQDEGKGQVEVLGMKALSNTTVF
Description: Sodium-dependent phosphate uptake of Xenopus oocytes which expressed NaPi-2b (32P). The experiment is classed as cell-based. The following applies: Xenopus oocytes expressing rat NaPi-2b, 32P radioactive phosphorus; read-out: IC50 (phosphate uptake inhibitory activity). In outline: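 Rat NaPi-2b cloned from small-intestine cDNA; cRNA injected into Xenopus oocytes, expression for 2 days. Phosphate uptake inhibition measured with 32P; percent inhibition at 300 μM and 100 μM read from the same inhibition curve.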
For the compound `O=C(Nc1ccc(Cl)cc1C(=O)N/N=C/c1cccc(F)c1)c1cccc(CSCC(O)CO)c1` (centres unmarked) [Compound 1007, N-[4-Chloro-2-(3-fluoro-benzylidene-hydrazinocarbonyl)-phenyl]-3-(2,3-dihydroxy-propylsulfanylmethyl)-benzamide], the half-maximal inhibitory concentration (IC50) was found to be 0.4 µM.

Consider `CN(C)CCn1nnnc1SCc1cccc(C(=O)Nc2ccc(Cl)cc2C(=O)N/N=C/c2ccc(Cl)c(C(F)(F)F)c2)c1` [Compound 467, N-[4-Chloro-2-(4-chloro-3-trifluoromethyl-benzylidene-hydrazinocarbonyl)-phenyl]-3-[1-(2-dimethylamino-ethyl)-1H-tetrazol-5-ylsulfanylmethyl]-benzamide], for which the IC50 amounted to 7.94 µM. For the compound `O=C(Nc1sc2c(c1C(=O)N/N=C/c1ccc(Cl)c(C(F)(F)F)c1)CCCC2)c1cccc(CSCCCO)c1` [Compound 608, N-[3-(4-Chloro-3-trifluoromethyl-benzylidene-hydrazinocarbonyl)-4,5,6,7-tetrahydro-benzo[b]thiophen-2-yl]-3-(3-hydroxy-propylsulfanylmethyl)-benzamide], the IC50 is below 0.3 µM. On to `COc1ccc(C(=O)Nc2cc(Cl)ccc2C(=O)N/N=C/c2cccc(F)c2)cc1OC` [Compound 71, N-[5-Chloro-2-(3-fluoro-benzylidene-hydrazinocarbonyl)-phenyl]-3,4-dimethoxy-benzamide], for which the IC50 worked out at 12.3 µM.

With `O=C(O)CCSCc1cccc(C(=O)Nc2ccc(N3CCCCC3)cc2C(=O)N/N=C/c2ccc(F)cc2)c1` [Compound 888, 3-{3-[2-(4-Fluoro-benzylidene-hydrazinocarbonyl)-4-piperidin-1-yl-phenylcarbamoyl]-benzylsulfanyl}-propionic acid], the IC50 was found to be 2.55 µM. On to `COc1ccc(/C=N/NC(=O)c2c(C)csc2NC(=O)c2cccc(CSc3nc[nH]n3)c2)cc1` [Compound 556, N-[3-(4-Methoxy-benzylidene-hydrazinocarbonyl)-4-methyl-thiophen-2-yl]-3-(1H-[1,2,4]triazol-3-ylsulfanylmethyl)-benzamide], for which the IC50 was below 3 µM. Same read-out and setting: the result for `CCN(CC)CCN(C)Cc1cccc(C(=O)Nc2ccc(N3CCCC3)cc2C(=O)N/N=C/c2ccc(C)c(C)c2)c1` [Compound 916, 3-{[(2-Diethylamino-ethyl)-methyl-amino]-methyl}-N-[2-(3,4-dimethyl-benzylidene-hydrazinocarbonyl)-4-pyrrolidin-1-yl-phenyl]-benzamide] reads 5.22 µM; that for `COc1cc(OC)cc(C(=O)Nc2ccc(Br)cc2C(=O)N/N=C/c2ccc(F)cc2)c1` [Compound 115, N-[4-Bromo-2-(4-fluoro-benzylidene-hydrazinocarbonyl)-phenyl]-3,5-dimethoxy-benzamide], 5.48 µM.

For the compound `Cc1ccc(/C=N/NC(=O)c2cc(Br)ccc2NC(=O)c2ccc(CNCCN3CCOCC3)cc2)cc1C` [Compound 281, N-[4-Bromo-2-(3,4-dimethyl-benzylidene-hydrazinocarbonyl)-phenyl]-4-[(2-morpholin-4-yl-ethylamino)-methyl]-benzamide], the IC50 stood at 4.6 µM. On the same count and under the same terms, the result for `COc1ccc(C(=O)Nc2ccccc2C(=O)N/N=C/c2ccc(OC)c(Br)c2)cc1` [Compound 100, N-[2-(3-Bromo-4-methoxy-benzylidene-hydrazinocarbonyl)-phenyl]-4-methoxy-benzamide] reads 0.64 µM; that for `O=C(Nc1sc2c(c1C(=O)N/N=C/c1ccc(F)cc1)CCCC2)c1cccc(CN2CCC(N3CCCCC3)CC2)c1` [Compound 617, 3-[1,4′]Bipiperidinyl-1′-ylmethyl-N-[3-(4-fluoro-benzylidene-hydrazinocarbonyl)-4,5,6,7-tetrahydro-benzo[b]thiophen-2-yl]-benzamide], 3.68 µM; that for `O=C(Nc1ccc(Cl)cc1C(=O)N/N=C/c1ccc(Cl)c(C(F)(F)F)c1)c1cnc2ccccc2n1` [Compound 1006, Quinoxaline-2-carboxylic acid[4-chloro-2-(4-chloro-3-trifluoromethyl-benzylidene-hydrazinocarbonyl)-phenyl]-amide], 6.31 µM. The same measure, in the same setting: for `O=C(Nc1ccc(Br)cc1C(=O)N/N=C/c1cccc(F)c1)c1ccc(CNCCCN(CCO)CCO)cc1` [Compound 301, 4-({3-[Bis-(2-hydroxy-ethyl)-amino]-propylamino}-methyl)-N-[4-bromo-2-(3-fluoro-benzylidene-hydrazinocarbonyl)-phenyl]-benzamide] the value was 15.2 µM; for `O=C(Nc1ccc(Cl)cc1C(=O)N/N=C/c1cccc(F)c1)c1ccccn1` [Compound 359, Pyridin-2-carboxylic acid [4-chloro-2-(3-fluoro-benzylidene-hydrazinocarbonyl)-phenyl]-amide], 7.1 µM. On the same count and under the same terms, for `O=C(Nc1ccccc1C(=O)N/N=C/c1ccccc1Br)c1ccccc1` [Compound 228, N-[2-(2-Bromo-benzylidene-hydrazinocarbonyl)-phenyl]-benzamide] the value was 22.5 µM; for `Cc1cccc(/C=N/NC(=O)c2cc(Br)ccc2NC(=O)c2ccc(CN3CCC(CO)CC3)cc2)c1` [Compound 334, N-[4-Bromo-2-(3-methyl-benzylidene-hydrazinocarbonyl)-phenyl]-4-(4-hydroxymethyl-piperidin-1-ylmethyl)-benzamide], 7.69 µM.

As to `O=C(Nc1ccc(Br)cc1C(=O)N/N=C/c1ccc(F)cc1)c1cccnc1` [Compound 173, N-[4-Bromo-2-(4-fluoro-benzylidene-hydrazinocarbonyl)-phenyl]-nicotinamide], the IC50 stood at 7.4 µM. Still for that read-out and setting: for `COc1ccc(/C=N/NC(=O)c2cc(Cl)ccc2NC(=O)c2cccc(CSCC(O)CO)c2)cc1` (centres unmarked) [Compound 1011, N-[4-Chloro-2-(4-methoxy-benzylidene-hydrazinocarbonyl)-phenyl]-3-(2,3-dihydroxy-propylsulfanylmethyl)-benzamide] the value was 1.28 µM; for `COc1ccc(/C=N/NC(=O)c2c(C)csc2NC(=O)c2cccc(CN(CC(C)O)CC(C)O)c2)cc1` (centres unmarked) [Compound 852, 3-{[Bis-(2-hydroxy-propyl)-amino]-methyl}-N-[3-(4-methoxy-benzylidene-hydrazinocarbonyl)-4-methyl-thiophen-2-yl]-benzamide; hydrochloride], below 1 µM.

The experiment is the same for the next values; noted with them: phosphate uptake, oocytes expressing rat NaPi-2b; 300 μM, determined from inhibition curve.
`COc1ccc(C(=O)Nc2ccccc2C(=O)N/N=C/c2ccc(-c3ccccc3)cc2)cc1OC` [Compound 233, N-[2-(Biphenyl-4-ylmethylene-hydrazinocarbonyl)-phenyl]-3,4-dimethoxy-benzamide] returned an inhibition at 300 µM of 33.6%. Same read-out and setting: the result for `COc1ccc(C(=O)Nc2ccccc2C(=O)N/N=C/c2ccccc2F)cc1OC` [Compound 2, N-[2-(2-Fluoro-benzylidene-hydrazinocarbonyl)-phenyl]-3,4-dimethoxy-benzamide] reads 77.3%; that for `Cc1ccc(/C=N/NC(=O)c2scc(C)c2NC(=O)c2cccc(CN3CCN(CCO)CC3)c2)cc1C` [Compound 532, N-[2-(3,4-Dimethyl-benzylidene-hydrazinocarbonyl)-4-methyl-thiophen-3-yl]-3-[4-(2-hydroxy-ethyl)-piperazin-1-ylmethyl]-benzamide], 76%. Still for that read-out and setting: the result for `O=C(Nc1ccc(Br)cc1C(=O)NNCc1ccc(Cl)c(C(F)(F)F)c1)c1cccc(CSCCO)c1` [Compound 546, N-{4-Bromo-2-[N′-(4-chloro-3-trifluoromethyl-benzyl)-hydrazinocarbonyl]-phenyl}-3-(2-hydroxy-ethylsulfanylmethyl)-benzamide] reads 85.2%.
